Experimental data reported in patent US11945784B2, “IRE1 small molecule inhibitors” (Cornell University, priority 2018, dated 2024).

Experiments:
[1] = target: IRE1 (Homo sapiens (Human), UniProt O75460); assay: qPCR assay of XBP1 splicing; format: cell-based; conditions: 293T cells, tunicamycin-induced ER stress
Method: A quantitative PCR (qPCR) assay was performed to evaluate the ability of compound 17 and compound 23 to inhibit IRE1. To perform the qPCR assay, 50,000 293T cells were plated in each well of a flat-bottomed 96 well plates in duplicate. Test compounds or DMSO control were diluted to 4× their final concentration and 50 microliters were added to the cells. Compounds were incubated for 1 hour, then 50 microliters of 4× concentrated tunicamycin (8 ug/mL) were added to the cells to induce ER stress. ER stress was allowed to accumulate for 6 hours, after which the supernatant was removed and the cells were lysed with 150 uL of RLT lysis buffer (Qiagen). Samples were frozen at −80 degrees Celsius until RNA was isolated with the RNeasy 96 kit (Qiagen) according to the manufacturer's recommended protocol. The samples were used for subsequent RT-qPCR analysis of beta-actin, XBP1s, total XBP1 and SEC24D. Gene expression was evaluated by quantitative PCR for XBP1s, total XBP1 and SEC24D transcripts using the 2^(−ΔCT) method for calculating normalized gene expression. Gene expression levels were normalized to ACTB transcripts. XBP1 splicing is calculated as XBP1s expression divided by total XBP1 expression. […] See FIG. 3A (Compound 17) and FIG. 3B (Compound 23).

[2] = target: T1, IRE1α (Homo sapiens (Human), UniProt O75460); assay: In vitro luciferase assay (IRE1α Endoribonuclease Nanoluciferase Assay); format: cell-based; conditions: 293T cells, XBP1 luciferase reporter
Method in brief: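 293T cells transiently transfected with a PGK-Luc2-P2A-XBP1u-nanoluciferase-PEST reporter for IRE1α-dependent XBP1 splicing, replated, and treated next day with ER stressors ± inhibitors. Lysates read sequentially for luminescence (OneGlo, then Stop and Glo), 1000 ms integration.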

[3] = system: 293T cells; assay: Growth assay (cytotoxicity); format: cell-based; conditions: Homo sapiens, HEK-293T, 48 h, 2 day incubation, read-out: percentage growth at 5 uM
Method: A growth assay is performed to evaluate the compounds disclosed in Table 1 for cytotoxicity. Briefly, 5,000,000 293T cells are resuspended in 18 mL of cDMEM for a final concentration of 277,777 cells/mL. 180 μL (50,000 cells) cDMEM was seeded per well in 96 well flat bottom plate, with some wells left unfilled. In a 96 well plate, […] cDMEM and 1 uL of any one of the compounds disclosed herein. 133.3 uL cDMEM is added to wells 1, 2, 3, 5, 6, 7, 9, 10, and 11 of row A. Wells are serially diluted with 66.7 uL (highest concentration on right, lowest on left) to the total concentrations shown below. 20 uL of each dilution is transferred in duplicate to the cells plated in the 96-well plate. The plate is then placed in a humidified chamber for a 2 day incubation, and then photographed (media is more yellow in wells with potent cell growth). Absorbance is then measured at […] (lower for more acidic media) and […] (higher for more acidic media).

[4] = target: T1, IRE1α; assay: In vitro FRET assay; format: biochemical; conditions: XBP1 RNA probe
Method in brief: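 IRE1α (diluted to 2 nM) in citrate buffer pH 7.15 with serially diluted compound; FAM/Iowa Black-quenched XBP1 RNA probe (wildtype or non-spliceable mutant) added, fluorescence read […]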

T1 sequence (O75460 19-977): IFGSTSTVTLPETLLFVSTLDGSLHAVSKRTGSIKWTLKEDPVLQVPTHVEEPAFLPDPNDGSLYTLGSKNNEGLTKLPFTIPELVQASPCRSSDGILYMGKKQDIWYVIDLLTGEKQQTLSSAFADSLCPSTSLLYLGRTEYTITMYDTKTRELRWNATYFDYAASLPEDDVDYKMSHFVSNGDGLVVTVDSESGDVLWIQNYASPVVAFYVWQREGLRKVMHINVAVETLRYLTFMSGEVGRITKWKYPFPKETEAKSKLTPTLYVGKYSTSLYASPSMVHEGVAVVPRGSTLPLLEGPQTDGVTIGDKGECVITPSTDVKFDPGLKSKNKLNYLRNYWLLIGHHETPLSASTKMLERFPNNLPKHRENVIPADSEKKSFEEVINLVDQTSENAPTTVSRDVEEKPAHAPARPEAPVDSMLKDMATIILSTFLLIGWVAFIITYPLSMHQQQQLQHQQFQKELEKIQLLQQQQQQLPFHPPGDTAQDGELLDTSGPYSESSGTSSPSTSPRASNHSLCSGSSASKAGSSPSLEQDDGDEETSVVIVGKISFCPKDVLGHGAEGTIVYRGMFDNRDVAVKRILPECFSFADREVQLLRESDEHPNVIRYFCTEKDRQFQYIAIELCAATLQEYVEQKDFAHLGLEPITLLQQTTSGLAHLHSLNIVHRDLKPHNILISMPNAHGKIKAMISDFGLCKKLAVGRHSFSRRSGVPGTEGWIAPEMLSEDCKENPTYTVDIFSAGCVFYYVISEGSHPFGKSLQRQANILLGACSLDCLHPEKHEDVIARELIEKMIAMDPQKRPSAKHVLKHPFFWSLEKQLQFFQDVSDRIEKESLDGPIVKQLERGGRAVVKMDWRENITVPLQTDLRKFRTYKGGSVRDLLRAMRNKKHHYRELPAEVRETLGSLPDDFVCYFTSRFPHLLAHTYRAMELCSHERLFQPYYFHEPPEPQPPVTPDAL
IRE1, sequence (O75460 19-977): as above

SMILES | IC50 [1] [nM] | EC50 [2] [nM] | viability at 5 µM [3] [%] | IC50 [4] [nM]
Cc1nc(NS(=O)(=O)c2ccccc2Cl)ccc1/C=C/c1cnc(NC2CCC(N(C)C)CC2)nc1 (centres unmarked) [Compound 23, 2-chloro-N-(5-((E)-2-(2-(((1r,4r)-4-(dimethylamino)cyclohexyl)amino)pyrimidin-5-yl)vinyl)-6-methylpyridin-2-yl)benzenesulfonamide] | 4.39 | ≤ 5 | > 75 | ≤ 1
COc1cc(NS(=O)(=O)c2ccccc2Cl)ccc1/C=C/c1cnc(NC2CCC(N)CC2)nc1 (centres unmarked) [Compound 14, N-(4-((E)-2-(2-(((1r,4r)-4-aminocyclohexyl)amino)pyrimidin-5-yl)vinyl)-3-methoxyphenyl)-2-chlorobenzenesulfonamide] |  | ≤ 5 | > 35 | ≤ 1
COc1nc(NS(=O)(=O)c2ccccc2Cl)ccc1/C=C/c1cnc(NC2CCC(N(C)C)CC2)nc1 (centres unmarked) [Compound 17, 2-chloro-N-(5-((E)-2-(2-(((1r,4r)-4-(dimethylamino)cyclohexyl)amino)pyrimidin-5-yl)vinyl)-6-methoxypyridin-2-yl)benzenesulfonamide] | 4.95 | ≤ 5 | > 75 | ≤ 1
NC1CCC(Nc2ncc(CCc3ccc(NS(=O)(=O)c4ccccc4Cl)cc3)cn2)CC1 (centres unmarked) [Compound 1, N-(4-(2-(2-(((1r,4r)-4-aminocyclohexyl)amino)pyrimidin-5-yl)ethyl)phenyl)-2-chlorobenzenesulfonamide] |  | 50 to 100 | > 75 | 1 to 5
